According to US12570662B2, “Substituted pyrrolo[1,2-b]pyridazines as bifunctional degraders of interleukin-1 receptor-associated kinases” (Nurix Therapeutics, Inc., priority 2021, dated 2026):

Biological target: T1, IRAK4 (Homo sapiens, UniProt Q9NWZ3)
T1 construct: C-terminal HiBiT-tagged Jurkat cells (polyclonal cell line or clone 8D5); endogenous in cells; host or cells: Jurkat cells (polyclonal cell line or clone 8D5), HiBiT-tagged
T1 sequence (Q9NWZ3 1-460): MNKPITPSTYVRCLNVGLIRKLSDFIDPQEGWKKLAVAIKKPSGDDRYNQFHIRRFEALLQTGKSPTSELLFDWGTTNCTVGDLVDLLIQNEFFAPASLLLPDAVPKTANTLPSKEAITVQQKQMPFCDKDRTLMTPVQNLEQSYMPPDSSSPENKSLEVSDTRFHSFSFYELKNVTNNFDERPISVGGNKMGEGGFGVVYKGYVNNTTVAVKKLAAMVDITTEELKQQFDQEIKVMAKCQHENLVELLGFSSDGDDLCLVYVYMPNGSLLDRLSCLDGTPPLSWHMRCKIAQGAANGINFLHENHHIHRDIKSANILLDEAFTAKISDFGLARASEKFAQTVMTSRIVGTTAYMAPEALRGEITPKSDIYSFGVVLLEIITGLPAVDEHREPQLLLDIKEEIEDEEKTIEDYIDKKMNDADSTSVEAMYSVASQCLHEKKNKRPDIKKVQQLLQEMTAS
Assay: IRAK4 Degradation HiBit Assay
Type: cell-based
Conditions: C-terminal HiBiT-tagged Jurkat cells, 4 hrs incubation; for DC50: % IRAK4 remaining, four-parameter fit (IC50 used as DC50); for Dmax: from fit of % IRAK4 remaining, read-out: Dmax
Procedure: Compound dilution series (11-point, 3.16-fold dilutions in DMSO, columns 1-11 and 12-22) at 500× the final required concentrations were prepared in Labcyte LDV 384-well plates (cat. no. LP-0200) using a Labcyte Echo 550 Liquid Handler. The 500× solutions ranged from 5 mM to 0.5 μM (final assay concentration range 10 μM to 0.1 nM). Using the Echo, the 500× solutions were stamped into white, 384-well assay plates (Corning, cat. no. 3570) at 60 nL/well. The following assay plate controls were also stamped at 60 nL/well: DMSO in wells E23-P23 (NC, Negative Control, maximum signal), 5 mM solution control compound al in wells A23-D23 and M24-P24 (AC, Active Control, minimum signal/background, 10 μM final assay concentration), control compound al dilution series in wells […] (12-point, 4-fold dilutions). C-terminal HiBiT-tagged Jurkat cells (polyclonal cell line or clone 8D5) were plated at 1×10^6 cells/mL, 30 μL/well (3×10^4 cells/well) in complete RPMI (10% FBS, 1% L-glutamine). Cells were incubated for 4 hrs at 32° C./6% CO2. Compound al has the following structure:
Following incubation, 30 μL of complete Nano-Glo HiBiT Lytic Detection Reagent (Nano-Glo HiBiT Lytic Buffer with 1:50 Nano-Glo HiBiT Lytic Substrate and 1:100 LgBiT Protein; Promega cat. no. N3040) was added. Cells were further incubated for 10 min at room temperature (RT). Luminescence units (LU) were read on an EnVision plate reader (Perkin Elmer, 0.1 sec per well). Percent IRAK4 remaining per sample was calculated as follows: […]
Using Graphpad Prism, % IRAK4 remaining values were plotted as a function of compound concentration. To determine DC50 and Dmax values, resulting curves were fit to the Prism curve-fitting equation “log (inhibitor) vs response-Variable slope (four parameters)” (reported best fit value IC50 used as DC50). Table 1 summarizes the biological data of Compounds of Examples 1-137 and 142-145 obtained from the assays described herein.

Structure (SMILES) | DC50 [nM] | Dmax [%]
N#Cc1cnn2c(-c3cc(NC4CCOCC4)c(-c4nnc(N5CCN(C(=O)CN6CCN(c7cc(C8CCC(=O)NC8=O)ccn7)CC6)CC5)s4)cn3)ccc2c1 (racemic) [Example 15, rac-7-[5-(5-{4-[2-(4-{4-[(3R)-2,6-dioxopiperidin-3-yl]pyridin-2-yl}piperazin-1-yl)acetyl]piperazin-1-yl}-1,3,4-thiadiazol-2-yl)-4-[(oxan-4-yl)amino]pyridin-2-yl]pyrrolo[1,2-b]pyridazine-3-carbonitrile] | 15 | 60
N#Cc1cnn2c(-c3cc(NC4CCOCC4)c(-c4nnc(N5CCN(C(=O)C6CCN(c7cc(C8CCC(=O)NC8=O)ccn7)CC6)CC5)s4)cn3)ccc2c1 (racemic) [Example 16, rac-7-(5-{5-[4-(1-{4-[(3R)-2,6-dioxopiperidin-3-yl]pyridin-2-yl}piperidine-4-carbonyl)piperazin-1-yl]-1,3,4-thiadiazol-2-yl}-4-[(oxan-4-yl)amino]pyridin-2-yl)pyrrolo[1,2-b]pyridazine-3-carbonitrile] | 26 | 62
N#Cc1cnn2c(-c3cc(NC4CCOCC4)c(-c4nnc(N5CCN(C(=O)[C@H]6CCN(c7ccc([C@@H]8CCC(=O)NC8=O)cn7)C6)CC5)s4)cn3)ccc2c1 (racemic) [Example 17, 7-[5-(5-{4-[(3RS)-1-{5-[(3RS&)-2,6-dioxopiperidin-3-yl]pyridin-2-yl}pyrrolidine-3-carbonyl]piperazin-1-yl}-1,3,4-thiadiazol-2-yl)-4-[(oxan-4-yl)amino]pyridin-2-yl]pyrrolo[1,2-b]pyridazine-3-carbonitrile] | 12 | 100
N#Cc1cnn2c(-c3cc(NC4CCOCC4)c(-c4nnc(N5CCN(C(=O)CC6CCN(c7ccc(C8CCC(=O)NC8=O)cn7)CC6)CC5)s4)cn3)ccc2c1 (racemic) [Example 18, rac-7-[5-(5-{4-[2-(1-{5-[(3R)-2,6-dioxopiperidin-3-yl]pyridin-2-yl}piperidin-4-yl)acetyl]piperazin-1-yl}-1,3,4-thiadiazol-2-yl)-4-[(oxan-4-yl)amino]pyridin-2-yl]pyrrolo[1,2-b]pyridazine-3-carbonitrile] | 12 | 103
CC(C)Nc1cc(-c2ccc3cc(C#N)cnn23)ncc1-c1nnc(N2CCN(C(=O)CC3CCN(c4ccc(C5CCC(=O)NC5=O)cn4)CC3)CC2)s1 (racemic) [Example 19, rac-7-[5-(5-{4-[2-(1-{5-[(3R)-2,6-dioxopiperidin-3-yl]pyridin-2-yl}piperidin-4-yl)acetyl]piperazin-1-yl}-1,3,4-thiadiazol-2-yl)-4-[(propan-2-yl)amino]pyridin-2-yl]pyrrolo[1,2-b]pyridazine-3-carbonitrile] | 29 | 103
CC(C)Nc1cc(-c2ccc3cc(C#N)cnn23)ncc1-c1nnc(N2CCN(C(=O)[C@@H]3CCN(c4ccc([C@H]5CCC(=O)NC5=O)cn4)C3)CC2)s1 (racemic) [Example 20, 7-[5-(5-{4-[(3RS)-1-{5-[(3RS&)-2,6-dioxopiperidin-3-yl]pyridin-2-yl}pyrrolidine-3-carbonyl]piperazin-1-yl}-1,3,4-thiadiazol-2-yl)-4-[(propan-2-yl)amino]pyridin-2-yl]pyrrolo[1,2-b]pyridazine-3-carbonitrile] | 20 | 98
N#Cc1cnn2c(-c3cc(NC4CCOCC4)c(-c4nnc(C56CCC(C(=O)N7CCC(Oc8ccc(C9CCC(=O)NC9=O)cn8)CC7)(CC5)CC6)s4)cn3)ccc2c1 (racemic) [Example 21, rac-7-[5-(5-{4-[4-({5-[(3R)-2,6-dioxopiperidin-3-yl]pyridin-2-yl}oxy)piperidine-1-carbonyl]bicyclo[2.2.2]octan-1-yl}-1,3,4-thiadiazol-2-yl)-4-[(oxan-4-yl)amino]pyridin-2-yl]pyrrolo[1,2-b]pyridazine-3-carbonitrile] | 60 | 91
N#Cc1cnn2c(-c3cc(NC4CCOCC4)c(-c4nnc(C56CCC(C(=O)N7CCN(c8ccc(C9CCC(=O)NC9=O)cn8)CC7)(CC5)CC6)s4)cn3)ccc2c1 (racemic) [Example 22, rac-7-(5-{5-[4-(4-{5-[(3R)-2,6-dioxopiperidin-3-yl]pyridin-2-yl}piperazine-1-carbonyl)bicyclo[2.2.2]octan-1-yl]-1,3,4-thiadiazol-2-yl}-4-[(oxan-4-yl)amino]pyridin-2-yl)pyrrolo[1,2-b]pyridazine-3-carbonitrile] | 23 | 84
N#Cc1cnn2c(-c3cc(NC4CCOCC4)c(-c4nnc(C56CCC(CN7CCC(c8ccc(C9CCC(=O)NC9=O)cn8)CC7)(CC5)CC6)s4)cn3)ccc2c1 (racemic) [Example 23, rac-7-[5-(5-{4-[(4-{5-[(3R)-2,6-dioxopiperidin-3-yl]pyridin-2-yl}piperidin-1-yl)methyl]bicyclo[2.2.2]octan-1-yl}-1,3,4-thiadiazol-2-yl)-4-[(oxan-4-yl)amino]pyridin-2-yl]pyrrolo[1,2-b]pyridazine-3-carbonitrile] | 18 | 90
N#Cc1cnn2c(-c3cc(NC4CCOCC4)c(-c4nnc(C56CCC(CN7CCC(Oc8ccc(C9CCC(=O)NC9=O)cn8)CC7)(CC5)CC6)s4)cn3)ccc2c1 (racemic) [Example 24, rac-7-{5-[5-(4-{[4-({5-[(3R)-2,6-dioxopiperidin-3-yl]pyridin-2-yl}oxy)piperidin-1-yl]methyl}bicyclo[2.2.2]octan-1-yl)-1,3,4-thiadiazol-2-yl]-4-[(oxan-4-yl)amino]pyridin-2-yl}pyrrolo[1,2-b]pyridazine-3-carbonitrile] | 77 | 83
CNc1cc(-c2ccc3cc(C#N)cnn23)ncc1-c1nnc(C23CCC(CN4CCN(c5ccc(C6CCC(=O)NC6=O)cn5)CC4)(CC2)CC3)s1 (racemic) [Example 25, rac-7-[5-(5-{4-[(4-{5-[(3R)-2,6-dioxopiperidin-3-yl]pyridin-2-yl}piperazin-1-yl)methyl]bicyclo[2.2.2]octan-1-yl}-1,3,4-thiadiazol-2-yl)-4-(methylamino)pyridin-2-yl]pyrrolo[1,2-b]pyridazine-3-carbonitrile] | 53 | 106
N#Cc1cnn2c(-c3cc(NC4CCOCC4)c(-c4nnc(C56CCC(CN7CCN(c8ccc(C9CCC(=O)NC9=O)cn8)CC7)(CC5)CC6)s4)cn3)ccc2c1 (racemic) [Example 26, rac-7-[5-(5-{4-[(4-{5-[(3R)-2,6-dioxopiperidin-3-yl]pyridin-2-yl}piperazin-1-yl)methyl]bicyclo[2.2.2]octan-1-yl}-1,3,4-thiadiazol-2-yl)-4-[(oxan-4-yl)amino]pyridin-2-yl]pyrrolo[1,2-b]pyridazine-3-carbonitrile] | 120 | 80
CNc1cc(-c2ccc3cc(C#N)cnn23)ncc1-c1nnc(C23CCC(C(=O)N4CCN(c5ccc(C6CCC(=O)NC6=O)cn5)CC4)(CC2)CC3)s1 (racemic) [Example 27, rac-7-(5-{5-[4-(4-{5-[(3R)-2,6-dioxopiperidin-3-yl]pyridin-2-yl}piperazine-1-carbonyl)bicyclo[2.2.2]octan-1-yl]-1,3,4-thiadiazol-2-yl}-4-(methylamino)pyridin-2-yl)pyrrolo[1,2-b]pyridazine-3-carbonitrile] | 12 | 101
N#Cc1cnn2c(-c3cc(NC4CCOCC4)c(-c4nnc(N5CC6CCC(C5)N6C(=O)C5CCN(c6ccc([C@@H]7CCC(=O)NC7=O)cn6)CC5)s4)cn3)ccc2c1 (racemic) [Example 29, rac-7-(5-{5-[8-(1-{5-[(3R)-2,6-dioxopiperidin-3-yl]pyridin-2-yl}piperidine-4-carbonyl)-3,8-diazabicyclo[3.2.1]octan-3-yl]-1,3,4-thiadiazol-2-yl}-4-[(oxan-4-yl)amino]pyridin-2-yl)pyrrolo[1,2-b]pyridazine-3-carbonitrile] | 9 | 79
